Measured values: PubChem BioAssay (NCI)
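How tested: cells in 96-well plates exposed to compound for 48 hours at five concentrations. GI50: concentration for 50% inhibition of growth. TGI is the concentration that stops growth completely.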

Tests used:
Assay in all cases: NCI tumour cell line growth inhibition, 48 h
[1] = test system: 786-0 renal
[2] = test system: MALME-3M melanoma
[3] = test system: MDA-MB-435
[4] = test system: CCRF-CEM leukemia
[5] = test system: BT-549 breast
[6] = test system: SK-MEL-5 melanoma
[7] = test system: HOP-62 NSCLC
[8] = test system: SR leukemia
[9] = test system: SK-MEL-2 melanoma
[10] = test system: UACC-257 melanoma
[11] = test system: HL-60(TB) leukemia
[12] = test system: A498 renal
[13] = test system: UACC-62 melanoma
[14] = test system: DU-145 prostate
[15] = test system: EKVX NSCLC
[16] = test system: IGROV1 ovarian
[17] = test system: T-47D breast
[18] = test system: HCT-116 colon
[19] = test system: LOX IMVI melanoma
[20] = test system: UO-31 renal
[21] = test system: TK-10 renal
[22] = test system: COLO 205 colon
[23] = test system: HOP-92 NSCLC
[24] = test system: SK-MEL-28 melanoma
[25] = test system: SW-620 colon
[26] = test system: U251 CNS
[27] = test system: OVCAR-3 ovarian
[28] = test system: PC-3 prostate
[29] = test system: K-562 leukemia
[30] = test system: ACHN renal
[31] = test system: NCI-H522 lung
[32] = test system: NCI-H23 lung
[33] = test system: RPMI-8226 leukemia
[34] = test system: MOLT-4 leukemia
[35] = test system: NCI/ADR-RES ovarian
[36] = test system: OVCAR-5 ovarian
[37] = test system: SF-268 CNS
[38] = test system: NCI-H226 lung
[39] = test system: MCF7 breast
[40] = test system: KM12 colon
[41] = test system: SNB-19 CNS
[42] = test system: CAKI-1 renal
[43] = test system: A549 NSCLC
[44] = test system: SNB-75 CNS
[45] = test system: SK-OV-3 ovarian
[46] = test system: SF-539 CNS
[47] = test system: HT29 colon
[48] = test system: HCT-15 colon
[49] = test system: OVCAR-4 ovarian
[50] = test system: SF-295 CNS
[51] = test system: SN12C renal
[52] = test system: MDA-MB-231 breast
[53] = test system: M14 melanoma
[54] = test system: NCI-H460 lung

## CCCCCCCCCCCCC/C=C/[C@H]1[C@@H](C(=O)OC)N1S(=O)c1ccc(C)cc1 (stereo not given in full)
[1]
  TGI: > 100000 nM
[2]
  TGI: > 100000 nM
[3]
  TGI: > 100000 nM
[4]
  TGI: > 100000 nM
[5]
  TGI: > 100000 nM
[6]
  TGI: > 100000 nM
[7]
  TGI: > 100000 nM
[8]
  TGI: > 100000 nM
[9]
  TGI: > 100000 nM
[10]
  TGI: > 100000 nM
[11]
  TGI: 81300 nM
[12]
  TGI: > 100000 nM
[13]
  TGI: > 100000 nM
[14]
  TGI: > 100000 nM
[15]
  TGI: > 100000 nM
[16]
  TGI: > 100000 nM
[17]
  TGI: > 100000 nM
[18]
  TGI: > 100000 nM
[19]
  TGI: > 100000 nM
[20]
  TGI: > 100000 nM
[21]
  TGI: > 100000 nM
[22]
  TGI: > 100000 nM
[23]
  TGI: > 100000 nM
[24]
  TGI: > 100000 nM
[25]
  TGI: > 100000 nM
[26]
  TGI: > 100000 nM
[27]
  TGI: > 100000 nM
[28]
  TGI: > 100000 nM
[29]
  TGI: > 100000 nM
[30]
  TGI: > 100000 nM
[31]
  TGI: > 100000 nM
[32]
  TGI: > 100000 nM
[33]
  TGI: > 100000 nM
[34]
  TGI: > 100000 nM

## CNCCCNc1c2cc(OC)ccc2nc2cccc([N+](=O)[O-])c12
[1]
  GI50: 34.3 nM
  TGI: 306 nM
[2]
  GI50: 110 nM
  TGI: 315 nM
[35]
  GI50: 444 nM
  TGI: 3470 nM
[36]
  GI50: 24.6 nM
  TGI: 99.3 nM
[4]
  GI50: 17.3 nM
  TGI: 173 nM
[5]
  GI50: 186 nM
  TGI: 406 nM
[6]
  GI50: 19 nM
  TGI: 37.5 nM
[37]
  GI50: 56.5 nM
  TGI: 376 nM
[7]
  GI50: 28.4 nM
  TGI: 81 nM
[8]
  GI50: 25.3 nM
[10]
  GI50: 173 nM
  TGI: 397 nM
[11]
  GI50: 16.2 nM
[12]
  GI50: 63.7 nM
  TGI: 271 nM
[38]
  GI50: 128 nM
  TGI: 385 nM
[39]
  GI50: 23.4 nM
  TGI: 101 nM
[14]
  GI50: 45.4 nM
  TGI: 14800 nM
[15]
  GI50: 274 nM
  TGI: 1150 nM
[16]
  GI50: 33.8 nM
  TGI: 195 nM
[40]
  GI50: 43.1 nM
  TGI: 251 nM
[18]
  GI50: 25.5 nM
  TGI: 150 nM
[19]
  GI50: 64.1 nM
  TGI: 354 nM
[41]
  GI50: 123 nM
  TGI: 519 nM
[20]
  GI50: 85.5 nM
  TGI: 275 nM
[42]
  GI50: 30.6 nM
  TGI: 128 nM
[43]
  GI50: 32 nM
  TGI: 247 nM
[21]
  TGI: 378 nM
[22]
  GI50: 41.8 nM
  TGI: 237 nM
[44]
  GI50: 61.1 nM
  TGI: 224 nM
[23]
  GI50: 23.2 nM
  TGI: 137 nM
[24]
  GI50: 150 nM
  TGI: 650 nM
[25]
  GI50: 36.9 nM
  TGI: 517 nM
[27]
  GI50: 234 nM
  TGI: 818 nM
[28]
  TGI: 277 nM
[45]
  GI50: 65 nM
  TGI: 670 nM
[46]
  GI50: 132 nM
  TGI: 366 nM
[47]
  GI50: 22.3 nM
  TGI: 80.6 nM
[29]
  GI50: 15.3 nM
  TGI: 44.9 nM
[48]
  GI50: 28.5 nM
[49]
  GI50: 16.6 nM
  TGI: 52.8 nM
[50]
  GI50: 40.7 nM
  TGI: 258 nM
[51]
  GI50: 86.4 nM
  TGI: 16500 nM
[52]
  GI50: 69.4 nM
  TGI: 672 nM
[32]
  GI50: 26.9 nM
  TGI: 220 nM
[53]
  GI50: 21.1 nM
  TGI: 47.6 nM
[34]
  TGI: 48.2 nM
[54]
  GI50: 25 nM
  TGI: 103 nM
